Source: US20240173432A1, “Compositions and Methods for Treatment of Myotonic Dystrophy Type 1 with CRISPR/SluCas9” (Vertex Pharmaceuticals Incorporated, priority 2021, published 2024)

How the values were obtained:
[1] = test system: CAG foci in primary DM1 patient myoblasts; assay: Single-cut screening: CAG foci staining; assay type: cell-based, human; conditions: single sgRNA; for % of CAG foci positive nuclei (DNA-PKi): DNA-PKi treated
How it was run: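 Primary DM1 patient myoblasts were PFA-fixed and hybridized with […] (1 ng/μL, 15 min at 80° C) in 30% formamide/2×SSC, followed by anti-MBNL1 immunostaining and Hoechst counterstain. CAG RNA foci were quantified by high-content confocal imaging after single-cut SuCas9 sgRNA editing.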

[2] = test system: 3′ UTR of the human DMPK gene; assay: Single-cut screening: indel editing efficiency by Sanger sequencing and ICE analysis in primary DM1 patient myoblasts; assay type: cell-based; conditions: vehicle-treated samples; for Indel efficiency: single SluCas9 sgRNA RNP in primary DM1 patient myoblasts, Sanger sequencing and ICE analysis; for indel efficiency (Sanger sequencing and ICE analysis): single-cut, SluCas9 RNP, 72 hrs post nucleofection, wild-type allele
Procedure: Genomic DNA of DM1 myoblasts was isolated with the Kingfisher Flex purification system (Thermal Fisher) in 96-well format following the manufacturer's instruction. The DMPK 3′ UTR region was amplified using GoTaq Green Master Mix (Promega) and PCR primers flanking the 3′ UTR region. […] Amplification was conducted using the following cycling parameters: 1 cycle at 95° C. for 2 min; 40 cycles of 95° C. for 30 sec, 63° C. for 30 sec, and 72° C. for 90 sec; 1 cycle at 72° C. for 5 min. Only the wild type allele is amplified by the PCR reaction. The PCR products were analyzed on the TapeStation system with High Sensitivity D5000 ScreenTape (Agilent Technologies).
PCR products were purified and sequenced by Sanger sequencing. […] Indel values were estimated using the ICE analysis algorithm (Synthego) with the chromatogram files obtained from Sanger sequencing.
RNPs were assembled with recombinant SluCas9 protein and chemically modified sgRNAs at a ratio of 1:3 (protein:sgRNA). For SINGLE-cut screening, RNP complexes were assembled with 30 pmol of SluCas9 and 90 pmol of sgRNA in P5 Primary Cell Nucleofector Solution (Lonza). After incubation at room temperature for 20 minutes, 10 μL of RNP complex were mixed with two hundred thousand of primary myoblasts resuspended in 10 μL of P5 Nucleofector Solution. For DOUBLE-cut screening, RNP complexes were first assembled for individual sgRNAs with 20 pmol of SluCas9 protein and 60 pmol of sgRNAs in 5 μL of P5 Nucleofector Solution. After incubation at room temperature for 20 minutes, the two RNP complexes (one for upstream sgRNA and one for downstream sgRNA) were mixed at 1:1 ratio and then further mixed with two hundred thousand of primary myoblasts resuspended in 10 μL of P5 Nucleofector Solution.
The Nucleofector 96-well Shuttle System (Lonza) was used to deliver the SluCa9/sgRNA RNPs into primary DM1 patient myoblasts using the nucleofection program CM138. […] 72 hrs post nucleofection, two wells of DMSO-treated myoblasts and two wells of DNA-PKi-treated myoblasts from each nucleofection were harvested for genomic DNA extraction using the Kingfisher Flex purification system (Thermal Fisher), whereas one well of DMSO-treated myoblasts and one well of DNA-PKi-treated myoblasts were stained for RNA foci by FISH staining.
To assess the efficiency of individual SluCas9 sgRNAs for inducing indel editing and CTG repeat excision, single-cut screening was performed in which individual SluCas9 sgRNAs and recombinant SluCas9 protein were assembled into ribonucleoprotein (RNP) and delivered into primary DM1 patient myoblasts. […] Seventy-two (72) hrs post nucleofection, myoblasts were subjected to either genomic DNA isolation or RNA foci staining by fluorescence in situ hybridization (FISH).
Sanger sequencing and ICE analysis were then performed to quantify the frequency of indels induced by individual sgRNAs. It is of note that only the vehicle-treated samples were used for ICE analysis.
Editing efficiency was assessed by Sanger sequencing and ICE analysis. […] The * indicates the sgRNAs with R2<0.9 in the ICE analysis (in-house QC standard for reliable ICE analysis).

[3] = test system: CUG foci in primary DM1 patient myoblasts; assay: Single-cut screening: FISH staining of CUG RNA foci; assay type: cell-based, human; conditions: single sgRNA, primary DM1 patient myoblasts; for % of CUG foci free nuclei (DNA-PKi): DNA-PKi treated
How it was run: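 CD56-purified primary DM1 patient myoblasts nucleofected with SluCas9:sgRNA RNP (30:90 pmol, single-cut), then DMSO or 3 μM DNA-PK inhibitor for 48 h. At 72 h post-nucleofection, cells fixed and stained for CUG foci with Cy3-PNA(CAG)5 probe (1 ng/μL, 80 °C), co-stained for MBNL1 and Hoechst, imaged by high-content confocal microscopy.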

## CAGCGCAAGTGAGGAGGGGGGC (guide RNA; chemistry not fully specified) [SluD46]
[1]
  % of CAG foci positive nuclei (DNA-PKi): 1.16%
  % of CAG foci positive nuclei (Vehicle): 1.69%
[2]
  Indel efficiency: 46%
[3]
  % of CUG foci free nuclei (DNA-PKi): 34.71%
  % of CUG foci free nuclei (Vehicle): 8.24%

## CAGGCTGAGGCCCTGACGTGGA (guide RNA; chemistry not fully specified) [SluD07]
[1]
  % of CAG foci positive nuclei (DNA-PKi): 0.82%
  % of CAG foci positive nuclei (Vehicle): 2.37%
[2]
  Indel efficiency: 28%
[3]
  % of CUG foci free nuclei (DNA-PKi): 29.79%
  % of CUG foci free nuclei (Vehicle): 12.52%

## CAGTGCATCCAAAACGTGGATT (guide RNA; chemistry not fully specified) [SluD75]
[1]
  % of CAG foci positive nuclei (DNA-PKi): 1.9%
  % of CAG foci positive nuclei (Vehicle): 1.56%
[2]
  Indel efficiency: 17%
[3]
  % of CUG foci free nuclei (DNA-PKi): 22.6%
  % of CUG foci free nuclei (Vehicle): 11.9%

## CAGTTCACAACCGCTCCGAGCG (guide RNA; chemistry not fully specified) [SluU23]
[1]
  % of CAG foci positive nuclei (DNA-PKi): 1.53%
  % of CAG foci positive nuclei (Vehicle): 1%
[2]
  Indel efficiency: 5%
[3]
  % of CUG foci free nuclei (DNA-PKi): 29.8%
  % of CUG foci free nuclei (Vehicle): 11.23%

## CCAAAACGTGGATTGGGGTTGT (listed as DNA, chemistry not fully specified) [SluD73]
[1]
  % of CAG foci positive nuclei (DNA-PKi): 2.33%
  % of CAG foci positive nuclei (Vehicle): 2.52%
[2]
  Indel efficiency: 65%
  indel efficiency (Sanger sequencing and ICE analysis): high editing IN4DEL efficiency
[3]
  % of CUG foci free nuclei (DNA-PKi): 32.52%
  % of CUG foci free nuclei (Vehicle): 12.95%

## CCACGCTCGGAGCGGTTGTGAA (guide RNA; chemistry not fully specified) [SluU24]
[1]
  % of CAG foci positive nuclei (DNA-PKi): 1.56%
  % of CAG foci positive nuclei (Vehicle): 1%
[2]
  Indel efficiency: 28%
[3]
  % of CUG foci free nuclei (DNA-PKi): 50.23%
  % of CUG foci free nuclei (Vehicle): 20.62%

## CCAGCCGGCTCCGCCCGCTTCG (listed as DNA, chemistry not fully specified) [SluD56]
[1]
  % of CAG foci positive nuclei (DNA-PKi): 2.91%
  % of CAG foci positive nuclei (Vehicle): 1.04%
[2]
  Indel efficiency: 70%
  indel efficiency (Sanger sequencing and ICE analysis): high editing IN4DEL efficiency
[3]
  % of CUG foci free nuclei (DNA-PKi): 31.7%
  % of CUG foci free nuclei (Vehicle): 13.88%

## CCAGGCTGAGGCCCTGACGTGG (listed as DNA, chemistry not fully specified) [SluD06]
[1]
  % of CAG foci positive nuclei (DNA-PKi): 1.35%
  % of CAG foci positive nuclei (Vehicle): 3.12%
[2]
  Indel efficiency: 55%
  indel efficiency (Sanger sequencing and ICE analysis): high editing IN4DEL efficiency
[3]
  % of CUG foci free nuclei (DNA-PKi): 23.09%
  % of CUG foci free nuclei (Vehicle): 24.51%

## CCAGTTCACAACCGCTCCGAGC (guide RNA; chemistry not fully specified) [SluU22]
[1]
  % of CAG foci positive nuclei (DNA-PKi): 1.28%
  % of CAG foci positive nuclei (Vehicle): 0.96%
[2]
  Indel efficiency: 41%
[3]
  % of CUG foci free nuclei (DNA-PKi): 50.21%
  % of CUG foci free nuclei (Vehicle): 27.56%

## CCATCCACGTCAGGGCCTCAGC (guide RNA; chemistry not fully specified) [SluD08]
[1]
  % of CAG foci positive nuclei (DNA-PKi): 1.22%
  % of CAG foci positive nuclei (Vehicle): 5%
[2]
  Indel efficiency: 45%
[3]
  % of CUG foci free nuclei (DNA-PKi): 48.28%
  % of CUG foci free nuclei (Vehicle): 27.09%

## CCCAACAACCCCAATCCACGTT (guide RNA; chemistry not fully specified) [SluD70]
[1]
  % of CAG foci positive nuclei (DNA-PKi): 2.45%
  % of CAG foci positive nuclei (Vehicle): 2.33%
[2]
  Indel efficiency: 14%
[3]
  % of CUG foci free nuclei (DNA-PKi): 30.47%
  % of CUG foci free nuclei (Vehicle): 22.75%

## CCCCCTAGCggccggggaggga (guide RNA; as printed in the source, key not given here) [SluU44]
[1]
  % of CAG foci positive nuclei (DNA-PKi): 1.77%
  % of CAG foci positive nuclei (Vehicle): 0.7%
[2]
  Indel efficiency: 16%
[3]
  % of CUG foci free nuclei (DNA-PKi): 47%
  % of CUG foci free nuclei (Vehicle): 12.6%

## CCCCGGGCACTCAGTCTTCCAA (guide RNA; chemistry not fully specified) [SluU12]
[1]
  % of CAG foci positive nuclei (DNA-PKi): 1.38%
  % of CAG foci positive nuclei (Vehicle): 1.29%
[2]
  Indel efficiency: 20%
[3]
  % of CUG foci free nuclei (DNA-PKi): 50.23%
  % of CUG foci free nuclei (Vehicle): 16.44%

## CCCCGTTGGAAGACTGAGTGCC (guide RNA; chemistry not fully specified) [SluU09]
[1]
  % of CAG foci positive nuclei (DNA-PKi): 1.22%
  % of CAG foci positive nuclei (Vehicle): 1.48%
[2]
  Indel efficiency: 65%
[3]
  % of CUG foci free nuclei (DNA-PKi): 74.97%
  % of CUG foci free nuclei (Vehicle): 26.05%

## CCCCTCCTCACTTGCGCTGCTC (guide RNA; chemistry not fully specified) [SluD47]
[1]
  % of CAG foci positive nuclei (DNA-PKi): 1.11%
  % of CAG foci positive nuclei (Vehicle): 1%
[2]
  Indel efficiency: 18%
[3]
  % of CUG foci free nuclei (DNA-PKi): 28.63%
  % of CUG foci free nuclei (Vehicle): 8.95%

## CCCGGGCACTCAGTCTTCCAAC (guide RNA; chemistry not fully specified) [SluU11]
[1]
  % of CAG foci positive nuclei (DNA-PKi): 1.27%
  % of CAG foci positive nuclei (Vehicle): 1.44%
[2]
  Indel efficiency: 21%
[3]
  % of CUG foci free nuclei (DNA-PKi): 52.22%
  % of CUG foci free nuclei (Vehicle): 19.12%

## CCCGTTGGAAGACTGAGTGCCC (listed as DNA, chemistry not fully specified) [SluU10]
[1]
  % of CAG foci positive nuclei (DNA-PKi): 0.66%
  % of CAG foci positive nuclei (Vehicle): 2%
[2]
  Indel efficiency: 81%
  indel efficiency (Sanger sequencing and ICE analysis): high editing IN4DEL efficiency
[3]
  % of CUG foci free nuclei (DNA-PKi): 72.18%
  % of CUG foci free nuclei (Vehicle): 27.04%

## CCCTAGAACTGTCTTCGACTCC (guide RNA; chemistry not fully specified) [SluU03]
[1]
  % of CAG foci positive nuclei (DNA-PKi): 2.04%
  % of CAG foci positive nuclei (Vehicle): 1.05%
[2]
  Indel efficiency: 9%
[3]
  % of CUG foci free nuclei (DNA-PKi): 49.49%
  % of CUG foci free nuclei (Vehicle): 11.12%

## CCGAGAGCAGCGCAAGTGAGGA (guide RNA; chemistry not fully specified) [SluD50]
[1]
  % of CAG foci positive nuclei (DNA-PKi): 2.2%
  % of CAG foci positive nuclei (Vehicle): 1.81%
[2]
  Indel efficiency: 4%
[3]
  % of CUG foci free nuclei (DNA-PKi): 30.13%
  % of CUG foci free nuclei (Vehicle): 7.64%

## CCGGGCCCGCCCCCTAGCggcc (guide RNA; as printed in the source, key not given here) [SluU37]
[1]
  % of CAG foci positive nuclei (DNA-PKi): 2.28%
  % of CAG foci positive nuclei (Vehicle): 0.72%
[2]
  Indel efficiency: 15%
[3]
  % of CUG foci free nuclei (DNA-PKi): 30.58%
  % of CUG foci free nuclei (Vehicle): 8.09%

## CCTCCGACTCGCTGACAGGCTA (guide RNA; chemistry not fully specified) [SluD67]
[1]
  % of CAG foci positive nuclei (DNA-PKi): 1.8%
  % of CAG foci positive nuclei (Vehicle): 0.69%
[2]
  Indel efficiency: 39%
[3]
  % of CUG foci free nuclei (DNA-PKi): 25.54%
  % of CUG foci free nuclei (Vehicle): 10.06%

## CCTGACGTGGATGGGCAAACTG (guide RNA; chemistry not fully specified) [SluD09]
[1]
  % of CAG foci positive nuclei (DNA-PKi): 1.48%
  % of CAG foci positive nuclei (Vehicle): 1.16%
[2]
  Indel efficiency: 5%
[3]
  % of CUG foci free nuclei (DNA-PKi): 33.83%
  % of CUG foci free nuclei (Vehicle): 12.5%
